Consider 4 compounds from article PMC9975586, “Inhibitory effect of Selaginella doederleinii hieron on human cytochrome P450” (Frontiers in Pharmacology, 2023).

One data set addresses CYP3A (Homo sapiens, UniProt P08684). The data set is described as follows: CYP450 cocktail inhibition assay (LC-MS/MS, human liver microsomes). It counts as in vitro ADME. The note with it: for IC50 at 15 min / inhibition at 15 min, 10 µM: human, liver microsomes.
The next data set addresses T1, CYP1A2 (Homo sapiens, UniProt P05177).
T1 sequence (P05177 1-516): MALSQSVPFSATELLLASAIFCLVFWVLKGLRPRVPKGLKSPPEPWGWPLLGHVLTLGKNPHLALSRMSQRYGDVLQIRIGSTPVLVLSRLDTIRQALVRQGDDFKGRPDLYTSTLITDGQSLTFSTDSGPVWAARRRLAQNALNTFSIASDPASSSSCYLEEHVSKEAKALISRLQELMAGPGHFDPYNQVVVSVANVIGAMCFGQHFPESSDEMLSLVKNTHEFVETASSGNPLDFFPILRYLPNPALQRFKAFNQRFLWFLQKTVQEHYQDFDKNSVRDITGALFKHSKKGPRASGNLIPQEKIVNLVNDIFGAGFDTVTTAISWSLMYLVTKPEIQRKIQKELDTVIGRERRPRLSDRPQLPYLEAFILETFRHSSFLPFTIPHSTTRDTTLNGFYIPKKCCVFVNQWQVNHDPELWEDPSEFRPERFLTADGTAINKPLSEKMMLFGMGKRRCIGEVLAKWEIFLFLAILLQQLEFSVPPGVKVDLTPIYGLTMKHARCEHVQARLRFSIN
The data set is described as above. It counts as in vitro ADME. The conditions noted are these: for IC50: HLM 0.5 mg/mL, substrate Phenacetin 10 μM, 15 min. How it is done: (§1) The contents of organic solvent and DMSO in incubation mixture was under 1% (v/v) and 0.1% (v/v) respectively. Reactions were terminated by adding 200 µL of an ice-cold stop solution consisting of methanol containing Rutin (2 µg/ml) as internal standard. Samples were subsequently cooled in ice bath to precipitate proteins. Supernatants were collected into clean tubes after centrifugation at 12000 rpm at 4°C for 10 min prior to inject into LC-MS/MS.
(§2) Percentages of control activity were calculated to determine inhibition potency. The inhibition curves were obtained by incubating the cocktail of substrates with 10–11 different compounds’ concentrations, where Delicaflavone and Amentoflavone were 0–50 µM.
(§3) For specific MRM parameters, please refer to Supplementary Table S3.

The next data set deals with CYP2E1 (Homo sapiens, UniProt P05181). The data set is described as above. The conditions noted are these: for inhibition at 15 min, 10 µM: human, pH 7.4. As to the method: as §1, §2, §3
A further data set addresses T2, CYP2C8 (Homo sapiens, UniProt P10632).
T2 sequence (P10632 1-490): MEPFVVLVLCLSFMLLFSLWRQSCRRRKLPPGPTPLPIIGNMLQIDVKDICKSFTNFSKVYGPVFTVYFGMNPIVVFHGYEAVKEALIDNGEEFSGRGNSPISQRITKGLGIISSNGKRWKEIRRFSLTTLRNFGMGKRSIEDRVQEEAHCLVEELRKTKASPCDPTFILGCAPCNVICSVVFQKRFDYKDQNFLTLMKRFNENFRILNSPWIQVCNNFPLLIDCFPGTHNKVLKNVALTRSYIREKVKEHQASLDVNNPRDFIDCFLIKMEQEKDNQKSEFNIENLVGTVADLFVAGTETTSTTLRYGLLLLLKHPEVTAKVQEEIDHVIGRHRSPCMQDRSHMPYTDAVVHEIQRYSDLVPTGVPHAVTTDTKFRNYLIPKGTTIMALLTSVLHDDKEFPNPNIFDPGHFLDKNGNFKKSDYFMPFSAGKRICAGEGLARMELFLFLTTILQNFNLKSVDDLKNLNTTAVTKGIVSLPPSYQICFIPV
The description is as above. The note with it: for inhibition at 15 min, 10 µM: human, microsomes, pH 7.4. How it is done:
as §1, §2, §3

The target of data set [1] is T3, CYP2D6 (Homo sapiens, UniProt P10635). Described as above. How it is done:
as §1, §2, §3

Data set [2] addresses T4, CYP2C19 (Homo sapiens, UniProt P33261). The data set is described as above. How it is done:
as §1, §2, §3

Another data set deals with CYP2C9 (Homo sapiens, UniProt P11712). The description is as above. The note with it: for inhibition at 15 min, 10 µM: human, microsomes, pH 7.4. How it is done: as §1, §2, §3
A further data set deals with CYP3A (Testosterone). The experiment in a line: Time-dependent inhibition study (pre-incubation with HLM with/without NADPH, cocktail assay). It counts as in vitro ADME, human. The note with it: single point screening; SDEA 0.5 μg/ml, Delicaflavone 2 μM; 35 min pre-incubation with/without NADPH. As to the method:
(§4) Enzymes that may be involved in time-dependent were pre-incubated for 0, 5, 10, 15 and 35 min respectively, and then re-incubated to determine the type of inhibition. Residual enzyme activity pre-incubated without NADPH was set as the control group, then drawing suppression curves based on the measured data.

For data set [3], the target named is T3, CYP2D6. The data set is described as above. It counts as in vitro ADME. The conditions noted are these: single point screening; SDEA 0.5 μg/ml, Amentoflavone 0.1 μM, Delicaflavone 2 μM; 35 min pre-incubation with/without NADPH. As to the method: as §4
For data set [4], the target named is T4, CYP2C19. The description is as above. The conditions noted are these: single point screening; SDEA 0.5 μg/ml, Amentoflavone 0.1 μM, Delicaflavone 2 μM; 35 min pre-incubation with/without NADPH. It counts as in vitro ADME. As to the method:
as §4

[5] abbreviates: pH 7.4, probe Dextromethorphan (3-methoxymorphinan formation, in cocktail).
The mark [6] stands for this setting: pH 7.4, probe Testosterone 5 µM (in cocktail).
[7] abbreviates: pH 7.4, probe Testosterone (in cocktail), single-point, 10 μM, cocktail assay, HLM, substrate Testosterone, read-out: inhibitory effect on CYP3A (Testosterone).
The mark [8] stands for this setting: single-point, 10 μM, cocktail assay, HLM.

Where two headings read alike, the source gives them in different places.

Sequence of CYP2C9 (P11712 whole entry): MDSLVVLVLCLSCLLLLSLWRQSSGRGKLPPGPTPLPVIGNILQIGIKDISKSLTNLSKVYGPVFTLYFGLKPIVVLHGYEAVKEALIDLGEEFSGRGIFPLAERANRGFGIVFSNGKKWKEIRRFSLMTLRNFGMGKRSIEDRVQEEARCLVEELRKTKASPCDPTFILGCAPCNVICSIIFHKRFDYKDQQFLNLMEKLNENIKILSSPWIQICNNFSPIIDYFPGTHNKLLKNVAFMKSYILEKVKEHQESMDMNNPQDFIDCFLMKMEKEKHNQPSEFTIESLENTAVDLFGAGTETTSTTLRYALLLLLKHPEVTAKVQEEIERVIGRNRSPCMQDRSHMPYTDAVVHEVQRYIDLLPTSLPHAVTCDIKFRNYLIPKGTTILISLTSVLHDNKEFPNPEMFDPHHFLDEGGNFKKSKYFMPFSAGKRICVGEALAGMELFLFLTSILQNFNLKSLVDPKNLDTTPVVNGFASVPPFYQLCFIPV
T4 sequence (P33261 whole entry): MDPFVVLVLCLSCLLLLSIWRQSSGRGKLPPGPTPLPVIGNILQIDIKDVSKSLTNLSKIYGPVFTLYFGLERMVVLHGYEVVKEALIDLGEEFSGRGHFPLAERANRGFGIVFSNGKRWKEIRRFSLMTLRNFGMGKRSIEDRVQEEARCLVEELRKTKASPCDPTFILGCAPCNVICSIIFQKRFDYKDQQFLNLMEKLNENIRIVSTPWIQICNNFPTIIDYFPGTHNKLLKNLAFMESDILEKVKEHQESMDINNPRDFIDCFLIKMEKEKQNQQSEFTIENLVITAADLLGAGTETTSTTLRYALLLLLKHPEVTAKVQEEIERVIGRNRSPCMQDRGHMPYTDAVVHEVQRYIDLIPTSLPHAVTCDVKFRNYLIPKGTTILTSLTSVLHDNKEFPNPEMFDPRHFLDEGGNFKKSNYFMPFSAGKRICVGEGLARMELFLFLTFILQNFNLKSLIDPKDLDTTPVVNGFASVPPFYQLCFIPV
Sequence of CYP2E1 (P05181 whole entry): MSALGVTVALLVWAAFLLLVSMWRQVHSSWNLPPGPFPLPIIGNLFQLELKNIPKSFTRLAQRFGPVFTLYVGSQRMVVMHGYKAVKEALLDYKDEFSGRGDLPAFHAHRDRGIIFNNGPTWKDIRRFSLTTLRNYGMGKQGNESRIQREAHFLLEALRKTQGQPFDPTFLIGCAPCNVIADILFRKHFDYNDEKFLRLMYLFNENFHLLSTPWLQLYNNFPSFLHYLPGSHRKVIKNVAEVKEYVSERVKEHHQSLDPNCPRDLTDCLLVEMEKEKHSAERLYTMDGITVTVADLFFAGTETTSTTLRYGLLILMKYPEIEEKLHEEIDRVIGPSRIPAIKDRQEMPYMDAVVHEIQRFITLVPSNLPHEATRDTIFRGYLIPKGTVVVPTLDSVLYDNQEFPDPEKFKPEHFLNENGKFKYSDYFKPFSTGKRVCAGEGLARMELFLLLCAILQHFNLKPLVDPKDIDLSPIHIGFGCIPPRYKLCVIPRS
T3 sequence (P10635 whole entry): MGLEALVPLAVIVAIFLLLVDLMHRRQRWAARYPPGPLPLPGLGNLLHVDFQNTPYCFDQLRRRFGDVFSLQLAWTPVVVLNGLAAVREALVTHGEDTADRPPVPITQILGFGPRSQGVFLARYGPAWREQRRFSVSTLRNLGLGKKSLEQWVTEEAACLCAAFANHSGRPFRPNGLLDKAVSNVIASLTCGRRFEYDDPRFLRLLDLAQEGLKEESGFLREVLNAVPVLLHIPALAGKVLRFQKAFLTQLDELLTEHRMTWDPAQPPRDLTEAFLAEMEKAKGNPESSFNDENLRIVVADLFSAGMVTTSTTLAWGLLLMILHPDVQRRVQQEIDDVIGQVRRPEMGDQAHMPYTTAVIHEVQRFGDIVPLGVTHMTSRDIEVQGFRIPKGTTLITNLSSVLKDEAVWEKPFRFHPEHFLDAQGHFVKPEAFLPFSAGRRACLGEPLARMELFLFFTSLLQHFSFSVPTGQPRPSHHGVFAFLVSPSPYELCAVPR
Sequence of CYP3A (P08684 2-503): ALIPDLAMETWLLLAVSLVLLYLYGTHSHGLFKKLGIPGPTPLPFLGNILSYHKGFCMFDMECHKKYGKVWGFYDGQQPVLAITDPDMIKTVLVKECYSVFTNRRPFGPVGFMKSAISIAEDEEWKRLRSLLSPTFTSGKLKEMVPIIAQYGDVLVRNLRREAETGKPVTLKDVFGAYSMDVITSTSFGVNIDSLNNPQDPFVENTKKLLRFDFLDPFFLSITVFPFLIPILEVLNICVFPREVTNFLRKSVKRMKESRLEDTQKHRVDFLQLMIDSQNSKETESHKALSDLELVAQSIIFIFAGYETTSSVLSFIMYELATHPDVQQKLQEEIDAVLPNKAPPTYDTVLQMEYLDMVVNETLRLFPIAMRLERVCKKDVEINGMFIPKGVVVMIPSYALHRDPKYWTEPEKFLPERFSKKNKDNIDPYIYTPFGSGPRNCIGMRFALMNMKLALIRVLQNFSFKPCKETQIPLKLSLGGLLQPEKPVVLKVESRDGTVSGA

As a reminder, the IC50 is the concentration that gives 50% inhibition. For `O=c1cc(-c2ccc(O)c(-c3c(O)cc(O)c4c(=O)cc(-c5ccc(O)cc5)oc34)c2)oc2cc(O)cc(O)c12` [Amentoflavone], the values for the IC50 at 15 min against CYP3A (setting [5]) and against CYP3A (setting [6]) were 0.827 µM and 0.435 µM, respectively. Moreover, the inhibition at 15 min, 10 µM on CYP3A (pH 7.4, single-point, 10 μM, cocktail assay, HLM, substrate not specified, read-out: inhibitory effect on CYP3A) is greater than 50%; at CYP1A2 (human, liver microsomes, pH 7.4, probe Phenacetin (in cocktail), single-point, 10 μM, HLM, read-out: inhibitory effect on CYP1A2) it was greater than 50%; at CYP2E1 (microsomes), greater than 50%; on CYP2C8, greater than 50%; against CYP2D6 [1] (human, microsomes, pH 7.4) it was greater than 50%; at CYP2C19 [2] (human, microsomes, pH 7.4), greater than 50%. Also, at CYP2C9, the inhibition at 15 min, 10 µM is greater than 50%. The IC50 against CYP1A2 came out at 3.7 µM; on CYP2E1, 1.05 µM; against CYP2C8 it was 0.144 µM; against CYP2D6 [1], 4.6 µM; on CYP2C19 [2] it was 1.06 µM; at CYP2C9, 0.142 µM.
For the compound `COc1cc2c(cc1OC)-c1cc3ccc(OC)c(OC)c3c[n+]1CC2` [Palmatine], the inhibition at 15 min, 10 µM at CYP3A (setting [7]) is greater than 50%. Besides, the “inhibitory effect on CYP2E1” value at CYP2E1 (microsomes, 10 µM) is “weak inhibitory effect”.
For `O=c1cc(-c2ccc(O)cc2)oc2cc(O)cc(O)c12` [Apigenin], the inhibition at 15 min, 10 µM at CYP3A (setting [7]), against CYP2E1 (microsomes), against CYP2C8 and against CYP2C9 was greater than 50% throughout.
Regarding `O=c1cc(-c2ccc(Oc3c(-c4ccc(O)cc4)oc4cc(O)cc(O)c4c3=O)cc2)oc2cc(O)cc(O)c12` [Delicaflavone], the values for the IC50 at 15 min against CYP3A (setting [5]) and at CYP3A (setting [6]) were 33.3 µM and 7.25 µM, respectively. Also, at CYP3A (single-point, 10 μM, cocktail assay, HLM, substrate not specified), the “inhibitory effect on CYP3A” value is recorded as “weak inhibitory effect”. Also, in the data set with CYP3A (Testosterone), the “time-dependent inhibition on CYP3A (Testosterone)” value is “did not produce time-dependent inhibition effect”. Moreover, the IC50 turned out to be 105 µM on CYP1A2; 2.86 µM against CYP2E1; 13.4 µM against CYP2C8; 72.8 µM against CYP2C19 [2]; 40 µM on CYP2C9. In addition, at CYP1A2 (single-point, 10 μM, HLM), the “inhibitory effect on CYP1A2” value is reported as “no obvious inhibitory effect”. Further, the “time-dependent inhibition on CYP2D6” value at CYP2D6 [3] is “did not produce time-dependent inhibition effect”. In addition, the “time-dependent inhibition on CYP2C19” value at CYP2C19 [4] is given as “did not produce time-dependent inhibition effect”. The “inhibitory effect on CYP2E1” value against CYP2E1 (setting [8]) is “weak inhibitory effect”. For the same compound, the “inhibitory effect on CYP2C8” value on CYP2C8 (setting [8]) is listed as “no obvious inhibitory effect”. In addition, on CYP2D6 [1] (setting [8]), the “inhibitory effect on CYP2D6” value is on record as “no obvious inhibitory effect”. Moreover, the “inhibitory effect on CYP2C19” value against CYP2C19 [2] (setting [8]) is “no obvious inhibitory effect”. Also, the “inhibitory effect on CYP2C9” value at CYP2C9 (setting [8]) is listed as “no obvious inhibitory effect”.
